Laboratory results published in patent publication US20230159510A1, “NOVEL PRMT5 INHIBITORS” (AMGEN INC., priority 2020, published 2023).
Where two headings read alike, the source gives them in different places.

How the values were obtained:
HCT116 MTAP null cells = assay: HCT116 proliferation assay, MTAP null cells (CellTiter-Glo, 6 days); assay type: cell-based; details: read-out: Protif_ HCT116-MTAP null IC50
Summary of the method: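 Compound titrations (top dose 1 or 10 µM, 1:3 dilution, 8 or 9 concentrations) and a DMSO control were applied to cells cultured overnight beforehand in RPMI 1640 with 10% FBS at 37° C, 5% CO2; viability was scored from luminescence.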

PRMT5/MEP50 = PRMT5/MEP50 (Homo sapiens, UniProt O14744); assay: MTase-Glo methyl transferase assay, Method B (FL-Histone H2A, 1 µM MTA, 1 h pre-incubation); assay type: biochemical; parameters: purchased Reaction Biology Corp RD-11-292; details: read-out: PRMT5 MTase Glo Ki (nM, Meth. B)
PRMT5/MEP50, sequence (O14744 2-637 limits assumed): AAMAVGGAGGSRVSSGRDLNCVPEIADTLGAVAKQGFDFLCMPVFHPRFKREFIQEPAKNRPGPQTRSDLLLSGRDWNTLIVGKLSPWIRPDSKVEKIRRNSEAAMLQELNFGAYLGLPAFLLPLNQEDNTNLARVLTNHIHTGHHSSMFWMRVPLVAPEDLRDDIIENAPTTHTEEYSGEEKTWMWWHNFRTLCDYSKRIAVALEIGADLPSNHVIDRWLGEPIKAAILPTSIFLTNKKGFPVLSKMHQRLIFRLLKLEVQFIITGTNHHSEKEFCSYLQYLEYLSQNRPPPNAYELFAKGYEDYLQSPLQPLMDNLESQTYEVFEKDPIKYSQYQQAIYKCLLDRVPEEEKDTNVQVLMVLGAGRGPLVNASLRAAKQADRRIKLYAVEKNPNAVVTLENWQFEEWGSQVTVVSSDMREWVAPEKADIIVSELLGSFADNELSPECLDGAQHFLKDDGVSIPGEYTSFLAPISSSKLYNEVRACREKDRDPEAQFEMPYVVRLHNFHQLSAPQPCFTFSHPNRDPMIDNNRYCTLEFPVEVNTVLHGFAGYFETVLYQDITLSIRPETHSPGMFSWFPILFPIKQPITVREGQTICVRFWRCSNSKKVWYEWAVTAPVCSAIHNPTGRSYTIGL
PRMT5/MEP50, sequence (Q9BQA1 2-342 partner limits assumed): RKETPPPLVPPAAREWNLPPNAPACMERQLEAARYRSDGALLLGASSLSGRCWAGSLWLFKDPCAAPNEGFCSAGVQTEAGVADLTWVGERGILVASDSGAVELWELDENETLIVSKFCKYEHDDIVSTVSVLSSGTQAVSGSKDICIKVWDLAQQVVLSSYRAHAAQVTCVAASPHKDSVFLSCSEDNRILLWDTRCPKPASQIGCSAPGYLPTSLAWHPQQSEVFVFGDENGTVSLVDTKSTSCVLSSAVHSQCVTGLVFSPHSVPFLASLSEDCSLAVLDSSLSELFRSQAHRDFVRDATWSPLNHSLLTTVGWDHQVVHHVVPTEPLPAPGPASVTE
Procedure: Method B: The PRMT5 inhibitory activity of test compounds was determined using the MTase-Glo™ assay (Promega), which monitors the product (S-adenosyl homocysteine or SAH) of methyltransferase reactions. The PRMT5 MTase-Glo assay was conducted in a 384-well white ProxiPlate (PerkinElmer) in a total volume of 16 µL. The PRMT5 enzymatic reaction (in 8 µL) contained 4 nM PRMT5/MEP50 (Reaction Biology Corp, catalog no.: RD-11-292), 5 µM S-adenosyl methionine (SAM, Promega), 2.5 µM FL-Histone H2A (BPS Bioscience, catalog no.: 52021), 1 µM 5′-methylthioadenosine (MTA, Sigma) and ½ log serially diluted compounds in a reaction buffer of 50 mM Tris (pH 8.0), 50 mM NaCl, 0.01% Tween 20, 0.01% BSA, and 1 mM TCEP. Test compounds were pre-incubated with PRMT5/MEP50, SAM, and MTA for 1 hour before addition of FL-Histone H2A to initiate the PRMT5 reaction. The reaction was allowed to proceed for 20 hours at room temperature and was then terminated by addition of 1 µL of 9X MTase-Glo™ Reagent (Promega). After a 30-minute incubation at room temperature, 8 µL of MTase-Glo™ Detection Solution (Promega) was added and the plate was incubated at room temperature for an additional 30 minutes. The light signal corresponding to the amount of SAH produced by the PRMT5 reaction was subsequently measured using an Envision multimode reader (PerkinElmer). IC50 and KI values were obtained by analyzing dose-response curves using GraphPad Prism®.

| Structure (SMILES) | IC50 (HCT116 MTAP null cells; HCT116-MTAP null, 144 h) | Ki (PRMT5/MEP50) | IC50 (HCT116 MTAP null cells) |
| --- | --- | --- | --- |
| C#CC(C)N(Cc1ccc(C(F)(F)F)cn1)C(=O)c1ccc2nc(N)c(C)cc2c1 (stereo not shown) [Example 656, 2-amino-3-methyl-N-(1-methylprop-2-ynyl)-N-[[5-(trifluoromethyl)-2-pyridyl]methyl] quinoline-6-carboxamide] | 210 nM | 5.28 nM | – |
| Cc1cc2cc(C(=O)N(Cc3cc(Br)ccn3)CC(C)C)ccc2nc1N [Example 665, 2-amino-N-[(4-bromo-2-pyridyl)methyl]-N-isobutyl-3-methylquinoline-6-carboxamide] | 680 nM | 9.17 nM | – |
| COc1ccnc2c1CCCC2N(Cc1ccc(C(F)(F)F)cn1)C(=O)c1ccc2nc(N)c(C)cc2c1 (stereo not shown) [Example 666, 2-amino-N-(4-methoxy-5,6,7,8-tetrahydroquinolin-8-yl)-3-methyl-N-[[5-(trifluoromethyl)-2-pyridyl]methyl] quinoline-6-carboxamide] | 41 nM | 3.93 nM | – |
| Cc1cc2cc(C(=O)N(Cc3ccc(C(F)(F)F)cn3)C3CCCc4ncccc43)ccc2nc1N (stereo not shown) [Example 667, 2-amino-3-methyl-N-(5,6,7,8-tetrahydroquinolin-5-yl)-N-[[5-(trifluoromethyl)-2-pyridyl]methyl] quinoline-6-carboxamide] | 24 nM | 3.9 nM | – |
| Cc1cc2cc(C(=O)N(Cc3ccc(C(F)(F)F)cn3)C3CCC4CCCC4C3)ccc2nc1N (stereo not shown) [Example 669, N-(2,3,3a,4,5,6,7,7a-octahydro-1H-inden-5-yl)-2-amino-3-methyl-N-[[5-(trifluoromethyl)-2-pyridyl]methyl] quinoline-6-carboxamide] | 820 nM | 8.5 nM | – |
| Cc1cc2cc(C(=O)N(Cc3ccc(C(F)(F)F)cn3)C3CCc4[nH]cnc4C3)ccc2nc1N (stereo not shown) [Example 670, 2-amino-3-methyl-N-(4,5,6,7-tetrahydro-1H-benzimidazol-5-yl)-N-[[5-(trifluoromethyl)-2-pyridyl]methyl] quinoline-6-carboxamide] | 860 nM | 5.15 nM | – |
| Cc1cc2cc(C(=O)N(Cc3ccc(C(F)(F)F)cn3)C3CCc4cn[nH]c4C3)ccc2nc1N (stereo not shown) [Example 671, 2-amino-3-methyl-N-(4,5,6,7-tetrahydro-1 H-indazol-6-yl)-N-[[5-(trifluoromethyl)-2-pyridyl]methyl] quinoline-6-carboxamide] | 180 nM | 6.82 nM | – |
| CCn1ncc2c1CCCC2N(Cc1ccc(C(F)(F)F)cn1)C(=O)c1ccc2nc(N)c(C)cc2c1 (stereo not shown) [Example 673, 2-amino-N-(1-ethy1-4,5,6,7-tetrahydroindazol-4-yl)-3-methyl-N-[[5-(trifluoromethyl)-2-pyridyl]methyl] quinoline-6-carboxamide] | 95 nM | 5.32 nM | – |
| CCC(C1CCOCC1)N(Cc1ccc(C(F)(F)F)cn1)C(=O)c1ccc2nc(N)c(C)cc2c1 (stereo not shown) [Example 681, 2-amino-3-methyl-N-(1-tetrahydropyran-4-ylpropyl)-N-[[5-(trifluoromethyl)-2-pyridyl]methyl] quinoline-6-carboxamide] | 240 nM | 4.87 nM | – |
| Cc1cc2cc(C(=O)N(Cc3ccc(C(F)(F)F)cc3)Cc3c(F)cncc3F)ccc2nc1N [Example 685, 2-amino-N-[(3,5-difluoro-4-pyridyl)methyl]-3-methyl-N-[[4-(trifluoromethyl)phenyl]methyl] quino line-6-carboxamide] | – | 1.22 nM | 51 nM |
| Cc1cc2cc(C(=O)N(Cc3ccnc4[nH]ccc34)Cc3ccnn3C)ccc2nc1N [Example 687, 2-amino-3-methyl-N-[(2-methylpyrazol-3-yl)methy1] -N-(1 H-pyrrolo [2,3-b]pyridin-4-ylmethyl)quinoline-6-carboxamide] | 110 nM | 1.56 nM | – |
| Cc1cc2cc(C(=O)N(Cc3ccc(O)cc3)Cc3ccnc4[nH]ccc34)ccc2nc1N [Example 688, 2-amino-N-[(4-hydroxyphenyl)methyl]-3-methyl-N-(1H-pyrrolo[2,3-b]pyridin-4-ylmethyl)quinoline-6-carboxamide] | 240 nM | 1.41 nM | – |
| Cc1cc2cc(C(=O)N(Cc3ccc[nH]3)Cc3ccnc4[nH]ccc34)ccc2nc1N [Example 689, 2-amino-3-methyl-N-(1H-pyrrolo[2,3-b]pyridin-4-ylmethyl)-N-(1H-pyrrol-2-ylmethyl)quinoline-6-carboxamide] | 330 nM | 2.94 nM | – |

Continued, in another order:

| IC50 (HCT116 MTAP null cells; HCT116-MTAP null, 144 h) | Ki (PRMT5/MEP50) | Structure (SMILES) | IC50 (HCT116 MTAP null cells) |
| --- | --- | --- | --- |
| 250 nM | 5.61 nM | Cc1cc2cc(C(=O)N(Cc3ccc(C(F)(F)F)cn3)Cc3ccccc3-n3cccn3)ccc2nc1N [Example 654, 2-amino-3-methyl-N-[(2-pyrazol-1-ylphenyl)methyl]-N-[[5-(trifluoromethyl)-2-pyridyl]methyl] quinoline-6-carboxamide] | – |
| 550 nM | 4 to 9 nM | C#CCN(Cc1ccc(C(F)(F)F)cn1)C(=O)c1ccc2nc(N)c(C)cc2c1 [Example 655, 2-amino-3-methyl-N-prop-2-ynyl-N-[[5-(trifluoromethyl)-2-pyridyl]methyl] quinoline-6-carboxamide] | – |
| 620 nM | 5.34 nM | CC#CCN(Cc1ccc(C(F)(F)F)cn1)C(=O)c1ccc2nc(N)c(C)cc2c1 [Example 657, 2-amino-N-but-2-ynyl-3-methyl-N-[[5-(trifluoromethyl)-2-pyridyl]methyl] quinoline-6-carboxamide] | – |
| 251 nM | 4.33 nM | C#CCCN(Cc1ccc(C(F)(F)F)cn1)C(=O)c1ccc2nc(N)c(C)cc2c1 [Example 659, 2-amino-N-but-3-ynyl-3-methyl-N-[[5-(trifluoromethyl)-2-pyridyl]methyl] quinoline-6-carboxamide] | – |
| 800 nM | 7.14 nM | Cc1cc2cc(C(=O)N(Cc3ccc(C(O)C(F)(F)F)cc3)Cc3ccc(C(F)(F)F)cn3)ccc2nc1N (stereo not shown) [Example 660, 2-amino-3-methyl-N-[ [4-(2,2,2-trifluoro-1-hydroxyethyl)phenyl]methyl]-N-[[5-(trifluoromethyl)-2-pyridyl]methyl] quinoline-6-carboxamide] | – |
| 69 nM | 1.81 nM | Cc1cc2cc(C(=O)N(Cc3ccc(O)cc3)Cc3ccc(C(F)(F)F)cn3)ccc2nc1N [Example 661, 2-amino-N-[(4-hydroxyphenyl)methyl]-3-methyl-N-[[5-(trifluoromethyl)-2-pyridyl]methyl] quinoline-6-carboxamide] | – |
| 180 nM | 3.58 nM | Cc1cc2cc(C(=O)N(Cc3ccc(O)c(F)c3)Cc3ccc(C(F)(F)F)cn3)ccc2nc1N [Example 662, 2-amino-N-[(3-fluoro-4-hydroxyphenyl)methyl] -3-methyl-N-[ [5-(trifluoromethyl)-2-pyridyl]methyl] quinoline-6-carboxamide] | – |
| 37 nM | 1.7 nM | Cc1cc2cc(C(=O)N(Cc3ccc(C(F)(F)F)cn3)C(C)c3cccc(O)c3)ccc2nc1N (stereo not shown) [Example 663, 2-amino-N-[1-(3-hydroxyphenyl)ethyl] -3-methyl-N-[[5-(trifluoromethyl)-2-pyridyl]methyl] quinoline-6-carboxamide] | – |
| 670 nM | 9.1 nM | Cc1cc2cc(C(=O)N(Cc3ccc(C(F)(F)F)cn3)C(C)c3cc[nH]c(=O)c3)ccc2nc1N (stereo not shown) [Example 664, 2-amino-3-methyl-N-[1-(2-oxo-1H-pyridin-4-yl)ethyl]-N-[[5-(trifluoromethyl)-2-pyridyl]methyl] quinoline-6-carboxamide] | – |
| 510 nM | 15.3 nM | Cc1cc2cc(C(=O)N(Cc3ccc(C(F)(F)F)cn3)C3Cc4ccccc4C3O)ccc2nc1N (stereo not shown) [Example 674, 2-amino-N-(1-hydroxyindan-2-yl)-3-methyl-N-[[5-(trifluoromethyl)-2-pyridyl]methyl] quinoline-6-carboxamide] | – |
| 950 nM | 9.37 nM | Cc1cc2cc(C(=O)N(Cc3ccc(C(F)(F)F)cn3)CC3CCC(O)C3)ccc2nc1N (stereo not shown) [Example 677, 2-amino-N-[(3-hydroxycyclopentyl)methyl]-3-methyl-N-[[5-(trifluoromethyl)-2-pyridyl]methyl] quinoline-6-carboxamide] | – |
| 500 nM | 5.57 nM | Cc1cc2cc(C(=O)N(Cc3ccc(C(F)(F)F)cn3)CC3CCCC(O)C3)ccc2nc1N (stereo not shown) [Example 678, 2-amino-N-[(3-hydroxycyclohexyl)methyl]-3-methyl-N-[[5-(trifluoromethyl)-2-pyridyl]methyl] quinoline-6-carboxamide] | – |
| 590 nM | 5.12 nM | Cc1cc2cc(C(=O)N(Cc3ccc(C(F)(F)F)cn3)Cc3ccnn3C)ccc2nc1N [Example 686, 2-amino-3-methyl-N-[(2-methylpyrazol-3-yl)methyl]-N-[[5-(trifluoromethyl)-2-pyridyl]methyl] quinoline-6-carboxamide] | – |
